# Numbered stars: 1 amine (or outer) side, 2 acyl side, 3 side chain; on linkers, the order of the positions; unused ones are H or OH. Bridge positions count the residues as written; N and C are the ends. Square brackets hold non-standard residues; d marks the D form. Peptide text beside a SMILES is read from it. * marks the point of attachment. hTyr(3S-OH,4S-OH,3'-OSO3H) = N[C@H](C(=O)O)[C@H](O)[C@@H](O)c1ccc(O)c(OS(=O)(=O)O)c1; Orn(4R-OH,5R-OH) = O=C([C@H](C[C@@H](O)[C@@H](O)N[*:3])N[*:1])[*:2]; Pro(3S-OH,4S-Me) = C[C@H]1CN[C@H](C(=O)O)[C@H]1O; X1 = CCCCCOc1ccc(-c2cc(-c3ccc(C(=O)*)cc3)no2)cc1; Gln(3R-OH) = NC(=O)C[C@@H](O)[C@H](N)C(=O)O; Hyp = O=C(O)[C@@H]1C[C@@H](O)CN1
# Legend:
# clinical = format: in vivo, human (adult patients); details: population estimate; for clearance: both sexes, human, in vivo, iv, two-compartment population model (Monolix 4.4), plasma HPLC-UV
# Protocol: This was a prospective pharmacokinetic study to compare adult patients with and without cancer. The study was conducted at King Saud University Medical City, a tertiary hospital. The study included male and female patients aged ≥ 18 years, who were admitted to the hospital and received a minimum of 2 micafungin doses based on empirical evidence or culture results. Patients who were pregnant and those with a micafungin allergy were excluded. The study protocol was approved by the Institutional Review Board of King Saud University Medical City (E-18-3373), and written informed consent was obtained from all patients before their inclusion in the study.
# All patients were treated with a 100–150 mg daily dose of micafungin for empirical use or confirmed fungal infection. Micafungin was diluted in 100 mL isotonic saline solution and infused over 60 min. Blood samples were drawn at 1, 2, 4, 6, 8, 12, and 24 h from the initiation of the micafungin dose. All blood samples were centrifuged, and plasma samples were stored at −80 °C until analysis.
# Plasma micafungin concentrations were determined using a high-performance liquid chromatography (HPLC) method with a UV detection system, with slight modification. Plasma samples were separated from whole blood, acidified with phosphoric acid, precipitated with acetonitrile, and centrifuged prior to dilution with buffer and injection into an HPLC system. Anidulafungin served as I.S. for micafungin. The method was fully validated and achieved using an isocratic Prominence Shimadzu HPLC system (Shimadzu, Columbia, MD, USA), which comprised an autosampler (SIL-20AHT), a UV detector (Shimadzu UV SPD-20A), and a pump (LC-20AB) connected to a degasser (Dgu-20A3). The separation of micafungin was performed on a Phenomenex Luna C18 column (250 × 4.6 mm i.d., 5 µm; Phenomenex, CA). The mobile phase comprised 0.1% (w/w) ammonium acetate in water, with pH adjusted to 7.0 with 25% NH3 solution and acetonitrile (70%:30%); the flow rate was 1 mL/min, and micafungin was detected at 273 nm. Data acquisition was achieved using LC Solution chromatographic software version 1.22 SP1 (Shimadzu, Columbia, MD, USA).
# Data from patients with and without cancer were comodeled using Monolix 4.4 software (Supplementary File S1). Monolix estimates pharmacokinetic parameters using the stochastic approximation expectation maximization algorithm. In the first step, we developed the base structural model for micafungin by fitting various compartmental models to plasma drug concentrations. The following criteria were followed to select between models: (a) a decrease in the minimum of the objective function value (log-likelihood value); (b) precision of the parameter estimation expressed as RSE (%) and calculated as the ratio between the standard error and final parameter estimate; (c) physiologic plausibility; and (d) GOF plots including observed and predicted concentrations, residuals plot, and visual predictive check.
# A covariate model was developed in a stepwise fashion, with forward inclusion based on model selection criteria. First, we plotted the empirical Bayesian estimates vs. covariates to screen for potentially significant correlations. Next, we performed a stepwise regression analysis to test the significant covariates identified in step 1, using the −2 log-likelihood ratio test. Age, body weight, height, BMI, sex, serum creatinine, creatinine clearance, sequential organ failure assessment score, and levels of AST, alanine transaminase, total bilirubin, and albumin were tested as covariates.
# GOF was assessed using the log-likelihood criterion during model building. Plots of model-based individual and population predictions vs. the observed concentrations were performed for model assessment. A predicted–corrected visual predictive check using 1000 simulations was constructed to study the performance of the final model. […]
# [1] = cited from earlier work
# Source text: Micafungin is metabolized in the liver by catechol O-methyltransferase, arylsulfatase, and hydroxylation. Only 1% of the unchanged drug is excreted through the kidneys. […] The elimination pharmacokinetics of micafungin in patients with advanced hepatic insufficiency are not fully understood. […] We described the plasma concentration-time curve of micafungin using a two-compartment model, similar to that described in previous studies. […] Overall, there were no differences in the ...
# [2] = patients with cancer (n = 10), 100 mg/day i.v.
# [3] = patients without cancer (n = 9), 100-150 mg/day i.v.
smiles,measurement,setting,value
"CCCCCOc1ccc(-c2cc(-c3ccc(C(=O)N[C@H]4C[C@@H](O)[C@@H](O)NC(=O)[C@@H]5[C@@H](O)[C@@H](C)CN5C(=O)[C@H]([C@H](O)CC(N)=O)NC(=O)[C@H]([C@H](O)[C@@H](O)c5ccc(O)c(OS(=O)(=O)O)c5)NC(=O)[C@@H]5C[C@@H](O)CN5C(=O)[C@H]([C@@H](C)O)NC4=O)cc3)no2)cc1 [micafungin] (X1-[Orn(4R-OH,5R-OH)]T[Hyp][hTyr(3S-OH,4S-OH,3'-OSO3H)][Gln(3R-OH)][Pro(3S-OH,4S-Me)]; lactam 1-C)",clearance,"clinical; patients with cancer (n = 10), 100 mg/day i.v. infusion over 60 min",20 mL/min
same,clearance,"clinical; patients without cancer (n = 9), 100-150 mg/day i.v. infusion over 60 min",10 mL/min
same,Q (intercompartmental clearance),clinical; [2],0.144 L/h
same,V1 (volume of the central compartment),clinical; [2],10.7 L
same,V2 (volume of the peripheral compartment),clinical; [2],3.5 L
same,Q (intercompartmental clearance),clinical; [3],0.188 L/h
same,V1 (volume of the central compartment),clinical; [3],12 L
same,V2 (volume of the peripheral compartment),clinical; [3],2.77 L
same,terminal half-life,[1]; adults,approximately 15 h
same,unchanged drug excreted through the kidneys,[1],1%

# Reference: article PMC8615109, “Assessment of Micafungin Dosage Regimens in Patients with Cancer Using Pharmacokinetic/Pharmacodynamic Modeling and Monte Carlo Simulation” (Antibiotics, 2021)
